According to patent US20250163044A1, “COMPOUNDS” (PSYLO PTY LTD, priority 2021, published 2025):

Assays:
Format in all cases: cell-based
5-HT2B receptor = molecular target: T1, 5-HT2B receptor (Homo sapiens, UniProt P41595); assay: FLIPR Ca2+ flux functional assay, agonist activity at 5-HT2B; details: CHO-K1 cells, Ca2+ flux; for EC50: read-out: 5-HT2B EC50
T1 construct: host or cells: CHO-K1
Protocol: (§1) Activity at 5-HT2A, 5-HT2B and 5-HT2C receptors was determined using a FLIPR Ca2+ flux assay at WuXi AppTec Co. Ltd. (Hong Kong) Discovery Biology Unit according to their standard protocols. Briefly, stably transfected cells expressing the receptor of interest (HEK293 for 5-HT2A and 5-HT2C; CHO-K1 for 5-HT2B) were grown and plated in a 384 well plate and incubated at 37° C. and 5% CO2 overnight. A 250 mM stock solution of probenecid in FLIPR calcium assay buffer (10 mL) was freshly prepared and combined with a fluorescent dye (Fluo-4 Direct) to give a final assay concentration of 2.5 mM. Reference compounds were 4-fold serially diluted and the screening compounds were 3-fold serially diluted in 100% DMSO for 10 points using Agilent Bravo, and 750 nL was added to a 384 well compound plate using Echo along with 30 μL assay buffer. The fluorescent dye was then added to the assay plate along with assay buffer to a final volume of 40 μL. The cell plate was incubated for 50 min at 37° C. and 5% CO2 and placed into the FLIPR Tetra along with the compound plate. 10 μL of references and compounds were then transferred from the compound plate into the cell plate and the fluorescent signal was read.

5-HT2C receptor = molecular target: T2, 5-HT2C receptor (Homo sapiens, UniProt P28335); assay: FLIPR Ca2+ flux functional assay, agonist activity at 5-HT2C; details: HEK293 cells, Ca2+ flux; for EC50: read-out: 5-HT2C EC50
T2 construct: host or cells: HEK293
T2 sequence (P28335 33-458): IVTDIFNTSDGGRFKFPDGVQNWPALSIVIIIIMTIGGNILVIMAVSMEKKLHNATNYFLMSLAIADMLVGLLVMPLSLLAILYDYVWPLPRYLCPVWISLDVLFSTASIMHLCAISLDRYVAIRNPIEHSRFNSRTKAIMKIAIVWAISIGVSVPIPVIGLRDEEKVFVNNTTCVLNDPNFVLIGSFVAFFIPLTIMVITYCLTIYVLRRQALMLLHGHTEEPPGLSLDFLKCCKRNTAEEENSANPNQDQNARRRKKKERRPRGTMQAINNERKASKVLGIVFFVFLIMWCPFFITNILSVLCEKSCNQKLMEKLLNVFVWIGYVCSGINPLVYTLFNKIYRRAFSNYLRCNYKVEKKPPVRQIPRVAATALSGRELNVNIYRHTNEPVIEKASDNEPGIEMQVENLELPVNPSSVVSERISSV
Protocol: as §1

5-HT2A receptor = molecular target: T3, 5-HT2A receptor (Homo sapiens, UniProt P28223); assay: FLIPR Ca2+ flux functional assay, agonist activity at 5-HT2A; details: HEK293 cells, Ca2+ flux; for EC50: read-out: 5-HT2A EC50
T3 construct: host or cells: HEK293
Protocol: as §1

T1 sequence (P41595 whole entry): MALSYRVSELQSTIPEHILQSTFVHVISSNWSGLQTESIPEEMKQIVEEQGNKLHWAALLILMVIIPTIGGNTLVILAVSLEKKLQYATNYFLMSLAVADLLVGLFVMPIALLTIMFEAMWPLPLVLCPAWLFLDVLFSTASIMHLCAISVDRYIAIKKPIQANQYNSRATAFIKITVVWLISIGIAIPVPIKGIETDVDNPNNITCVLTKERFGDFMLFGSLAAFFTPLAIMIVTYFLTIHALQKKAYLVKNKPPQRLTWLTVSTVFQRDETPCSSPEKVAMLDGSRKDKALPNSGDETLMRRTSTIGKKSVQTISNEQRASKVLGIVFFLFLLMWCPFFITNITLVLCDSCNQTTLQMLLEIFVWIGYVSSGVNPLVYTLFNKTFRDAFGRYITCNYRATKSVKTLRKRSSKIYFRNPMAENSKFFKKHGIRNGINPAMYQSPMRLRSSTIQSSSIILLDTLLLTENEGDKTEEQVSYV
T3 sequence (P28223 whole entry): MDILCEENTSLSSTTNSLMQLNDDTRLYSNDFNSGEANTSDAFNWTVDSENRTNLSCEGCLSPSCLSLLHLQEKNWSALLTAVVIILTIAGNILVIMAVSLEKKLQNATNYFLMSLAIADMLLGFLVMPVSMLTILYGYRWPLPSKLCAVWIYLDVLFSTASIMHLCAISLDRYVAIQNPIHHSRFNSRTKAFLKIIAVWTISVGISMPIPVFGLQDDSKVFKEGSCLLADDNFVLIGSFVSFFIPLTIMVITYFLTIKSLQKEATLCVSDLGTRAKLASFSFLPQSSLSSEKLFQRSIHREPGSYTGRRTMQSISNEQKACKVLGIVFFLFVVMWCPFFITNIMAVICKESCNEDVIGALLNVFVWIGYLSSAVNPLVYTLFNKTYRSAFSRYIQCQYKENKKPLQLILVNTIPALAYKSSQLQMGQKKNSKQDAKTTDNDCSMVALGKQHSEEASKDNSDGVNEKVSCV

| Structure (SMILES) | EC50 (5-HT2B receptor) [µM] | EC50 (5-HT2C receptor) [µM] | EC50 (5-HT2A receptor) [µM] | Emax (5-HT2A receptor) [%] | Emax (5-HT2B receptor) [%] | Emax (5-HT2C receptor) [%] |
| --- | --- | --- | --- | --- | --- | --- |
| CN(C)CCc1n[nH]c2cccc(O)c12 [Example P-6] | > 10 | > 10 |  |  |  |  |
| CN(C)CCc1n[nH]c2ccccc12 [Example P-7] | > 10 | 2.34 | > 10 |  |  |  |
| COc1ccc2onc(CCN(C)C)c2c1 [Example P-9, 2-(5-methoxybenzo[d]isoxazol-3-yl)-N,N-dimethylethan-1-amine] | > 10 | > 10 | 1.02 | 37.3 | 2.53 | -30.5 |
| CCN(CC)CCc1c[nH]c2ccc(OC)nc12 [Example P-10, 2-(5-Methoxy-1H-pyrrolo[3,2-b]pyridin-3-yl)-N,N-diethylethan-1-amine] | 0.284 | 0.0686 | 0.00611 | 82.8 | 47.1 | 99.1 |
| CCCN(CCC)CCc1c[nH]c2ccc(OC)nc12 [Example P-11, 2-(5-methoxy-1H-pyrrolo[3,2-b]pyridin-3-yl)-N,N-dipropylethan-1-amine] | 0.0522 | 0.0911 | 0.00417 | 99.1 | 92.1 | 96.3 |
| COc1ccc2[nH]cc(CCN(C(C)C)C(C)C)c2n1 [Example P-12, N-isopropyl-N-(2-(5-methoxy-1H-pyrrolo[3,2-b]pyridin-3-yl)ethyl)propan-2-amine] | 0.0222 | 0.2 | 0.00696 | 85.7 | 102 | 110 |
| CCN(C)CCc1c[nH]c2ccc(OC)nc12 [Example P-13, N-ethyl-2-(5-methoxy-1H-pyrrolo[3,2-b]pyridin-3-yl)-N-methylethan-1-amine] | > 10 | 0.0319 | 0.0101 | 79.6 | 2.25 | 95.8 |
| COc1ccc2[nH]cc(CCN(C)C(C)C)c2n1 [Example P-14, N-(2-(5-methoxy-1H-pyrrolo[3,2-b]pyridin-3-yl)ethyl)-N-methylpropan-2-amine] | > 10 | 0.139 | 0.021 | 78.9 | 1.06 | 98.3 |
| CCN(CC)CCc1c[nH]c2ncc(OC)cc12 [Example P-17, 2-(5-methoxy-1H-pyrrolo[2,3-b]pyridin-3-yl)-N,N-diethylethan-1-amine] | > 10 | > 10 | 0.279 | 84.7 | 0.37 | -0.53 |
| CCCN(CCC)CCc1c[nH]c2ncc(OC)cc12 [Example P-18, 2-(5-methoxy-1H-pyrrolo[2,3-b]pyridin-3-yl)-N,N-dipropylethan-1-amine] | > 10 | > 10 | 0.0855 | 89.4 | 9.35 | -0.33 |
| COc1cnc2[nH]cc(CCN(C(C)C)C(C)C)c2c1 [Example P-19, N-isopropyl-N-(2-(5-methoxy-1H-pyrrolo[2,3-b]pyridin-3-yl)ethyl)propan-2-amine] | > 10 | > 10 | 0.0729 | 112 | 13.3 | 0.16 |
| CCN(C)CCc1c[nH]c2ncc(OC)cc12 [Example P-20, N-ethyl-2-(5-methoxy-1H-pyrrolo[2,3-b]pyridin-3-yl)-N-methylethan-1-amine] | > 10 | > 10 | 0.0933 | 76.7 | 1.38 | -0.08 |
| COc1cnc2[nH]cc(CCN(C)C(C)C)c2c1 [Example P-21, N-(2-(5-methoxy-1H-pyrrolo[2,3-b]pyridin-3-yl)ethyl)-N-methylpropan-2-amine] | > 10 | > 10 | 0.109 | 79.8 | 4.56 | -0.15 |
| Cc1cnc2[nH]cc(CCN(C)C)c2c1 [Example P-22, N,N-dimethyl-2-(5-methyl-1H-pyrrolo[2,3-b]pyridin-3-yl)ethan-1-amine] | > 10 | > 10 | 0.691 | 55.5 | 1.91 | 0.27 |
| CCN(C)CCc1c[nH]c2ncc(C)cc12 [Example P-23, N-ethyl-N-methyl-2-(5-methyl-1H-pyrrolo[2,3-b]pyridin-3-yl)ethan-1-amine] | > 10 | > 10 | 1.24 | 55 | 0.88 | -0.04 |
| CN(C)CCc1c[nH]c2ncc(F)cc12 [Example P-24, N,N-dimethyl-2-(5-fluoro-1H-pyrrolo[2,3-b]pyridin-3-yl)ethan-1-amine] | > 10 | > 10 | 0.0808 | 56.5 | 6.16 | 24.7 |
| CCN(C)CCc1c[nH]c2ncc(F)cc12 [Example P-25, N-ethyl-N-methyl-2-(5-fluoro-1H-pyrrolo[2,3-b]pyridin-3-yl)ethan-1-amine] | > 10 | > 10 | 0.109 | 70.3 | 8.23 | 21 |
| CCN(CC)CCc1c[nH]c2nccc(OC)c12 [Example P-26, N,N-diethyl-2-(4-methoxy-1H-pyrrolo[2,3-b]pyridin-3-yl)ethan-1-amine] | > 10 | > 10 | 1.62 | 58.3 | 3.08 | 0.9 |
| COc1ccnc2[nH]cc(CCN(C(C)C)C(C)C)c12 [Example P-27, N-isopropyl-N-(2-(4-methoxy-1H-pyrrolo[2,3-b]pyridin-3-yl)ethyl)propan-2-amine] | > 10 | > 10 | 0.857 | 80.2 | 35.6 | 0.54 |
| CCN(C)CCc1c[nH]c2nccc(OC)c12 [Example P-28, N-ethyl-2-(4-methoxy-1H-pyrrolo[2,3-b]pyridin-3-yl)-N-methylethan-1-amine] | > 10 | > 10 | 0.782 | 70.5 | 0.69 | -0.06 |
| COc1ccnc2[nH]cc(CCN(C)C(C)C)c12 [Example P-29, N-(2-(4-methoxy-1H-pyrrolo[2,3-b]pyridin-3-yl)ethyl)-N-methylpropan-2-amine] | > 10 | > 10 | 0.555 | 71.6 | 0.59 | 0.48 |
| Cc1ccnc2[nH]cc(CCN(C)C)c12 [Example P-30, N,N-dimethyl-2-(4-methyl-1H-pyrrolo[2,3-b]pyridin-3-yl)ethan-1-amine] | > 10 | > 10 | 0.387 | 56.6 | 0.03 | 1.04 |
| CCN(C)CCc1c[nH]c2nccc(C)c12 [Example P-31, N-ethyl-N-methyl-2-(4-methyl-1H-pyrrolo[2,3-b]pyridin-3-yl)ethan-1-amine] | > 10 | > 10 | 1.02 | 54.5 | 1.01 | 0.01 |
| CN(C)CCc1c[nH]c2nccc(F)c12 [Example P-32, N,N-dimethyl-2-(4-fluoro-1H-pyrrolo[2,3-b]pyridin-3-yl)ethan-1-amine] | > 10 | > 10 | 0.414 | 57.8 | 0.14 | 0.61 |
| CCN(C)CCc1c[nH]c2nccc(F)c12 [Example P-33, N-ethyl-N-methyl-2-(4-fluoro-1H-pyrrolo[2,3-b]pyridin-3-yl)ethan-1-amine] | > 10 | > 10 | 0.641 | 54.7 | 0.01 | 0.33 |
| CCN(CC)CCc1c[nH]c2ccnc(OC)c12 [Example P-34, N,N-diethyl-2-(4-methoxy-1H-pyrrolo[3,2-c]pyridin-3-yl)ethan-1-amine] | > 10 | 0.682 | 0.15 | 82.6 | 14.7 | 91.7 |
| Cc1nccc2[nH]cc(CCN(C)C)c12 [Example P-39] |  |  | > 10 | 1.47 |  |  |
| CCN(C)CCc1c[nH]c2ccnc(C)c12 [Example P-40] |  |  | > 10 | 0.75 |  |  |
